In patent US9550772B2, “Azaindole derivatives as multi kinase inhibitors” (ORIBASE PHARMA, priority 2012, dated 2017):
Where two headings read alike, the source gives them in different places.

What was measured:
HUVEC cells = test: In vitro cell proliferation assay (MTT); assay type: cell-based; settings: Homo sapiens, 72 hr, read-out: EC50, anti-proliferative activity
Method: (§1) Cancer cell lines (5×10^3 cells per well) or HUVEC (1×10^4 cells per well) or HRMEC (1×10^4 cells per well) were distributed in 96-well plates and incubating in duplicate with escalating concentrations (10 nM to 3 μM) of compounds for 72 hr. Cell proliferation was measured using MTT (3[4,5-dimethylthiazol-2-yl]-2,5-diphenyltetrazolium bromide). The EC50 values were calculated from sigmoidal dose-response curves utilizing Prism 5.0 from Graph-Pad Software (GraphPad Software, La Jolla, Calif., USA), with values normalized to those of DMSO-treated control wells (0%) and 1% SDS control wells (100%).

MDA-MB-231 cell line = test: In vitro cell proliferation assay (MTT); assay type: cell-based; settings: Homo sapiens, MDA-MB-231, 72 hr, EC50 ≧ 1 μM, read-out: EC50, anti-proliferative activity
Method: as §1

HeLa cell line = test: In vitro cell proliferation assay (MTT); assay type: cell-based; settings: Homo sapiens, 72 hr, EC50 ≧ 1 μM, read-out: EC50, anti-proliferative activity
Method: as §1

HepG2 cell line = test: In vitro cell proliferation assay (MTT); assay type: cell-based; settings: Homo sapiens, HepG2, 72 hr, read-out: EC50, anti-proliferative activity
Method: as §1

A549 cell line = test: In vitro cell proliferation assay (MTT); assay type: cell-based; settings: Homo sapiens, A549, 72 h, EC50 ≧ 1 μM, read-out: EC50, anti-proliferative activity
Method: as §1

KDR (VEGFR2) = target: T1, KDR (VEGFR2) (Homo sapiens, UniProt P35968); test: In vitro kinase assay (Z'-LYTE, Invitrogen); assay type: biochemical; settings: compound at 100 nM, ATP Km apparent, read-out: % of inhibition of the kinase compared to the control
T1 construct: purchased Invitrogen
T1 sequence (P35968 20-1356): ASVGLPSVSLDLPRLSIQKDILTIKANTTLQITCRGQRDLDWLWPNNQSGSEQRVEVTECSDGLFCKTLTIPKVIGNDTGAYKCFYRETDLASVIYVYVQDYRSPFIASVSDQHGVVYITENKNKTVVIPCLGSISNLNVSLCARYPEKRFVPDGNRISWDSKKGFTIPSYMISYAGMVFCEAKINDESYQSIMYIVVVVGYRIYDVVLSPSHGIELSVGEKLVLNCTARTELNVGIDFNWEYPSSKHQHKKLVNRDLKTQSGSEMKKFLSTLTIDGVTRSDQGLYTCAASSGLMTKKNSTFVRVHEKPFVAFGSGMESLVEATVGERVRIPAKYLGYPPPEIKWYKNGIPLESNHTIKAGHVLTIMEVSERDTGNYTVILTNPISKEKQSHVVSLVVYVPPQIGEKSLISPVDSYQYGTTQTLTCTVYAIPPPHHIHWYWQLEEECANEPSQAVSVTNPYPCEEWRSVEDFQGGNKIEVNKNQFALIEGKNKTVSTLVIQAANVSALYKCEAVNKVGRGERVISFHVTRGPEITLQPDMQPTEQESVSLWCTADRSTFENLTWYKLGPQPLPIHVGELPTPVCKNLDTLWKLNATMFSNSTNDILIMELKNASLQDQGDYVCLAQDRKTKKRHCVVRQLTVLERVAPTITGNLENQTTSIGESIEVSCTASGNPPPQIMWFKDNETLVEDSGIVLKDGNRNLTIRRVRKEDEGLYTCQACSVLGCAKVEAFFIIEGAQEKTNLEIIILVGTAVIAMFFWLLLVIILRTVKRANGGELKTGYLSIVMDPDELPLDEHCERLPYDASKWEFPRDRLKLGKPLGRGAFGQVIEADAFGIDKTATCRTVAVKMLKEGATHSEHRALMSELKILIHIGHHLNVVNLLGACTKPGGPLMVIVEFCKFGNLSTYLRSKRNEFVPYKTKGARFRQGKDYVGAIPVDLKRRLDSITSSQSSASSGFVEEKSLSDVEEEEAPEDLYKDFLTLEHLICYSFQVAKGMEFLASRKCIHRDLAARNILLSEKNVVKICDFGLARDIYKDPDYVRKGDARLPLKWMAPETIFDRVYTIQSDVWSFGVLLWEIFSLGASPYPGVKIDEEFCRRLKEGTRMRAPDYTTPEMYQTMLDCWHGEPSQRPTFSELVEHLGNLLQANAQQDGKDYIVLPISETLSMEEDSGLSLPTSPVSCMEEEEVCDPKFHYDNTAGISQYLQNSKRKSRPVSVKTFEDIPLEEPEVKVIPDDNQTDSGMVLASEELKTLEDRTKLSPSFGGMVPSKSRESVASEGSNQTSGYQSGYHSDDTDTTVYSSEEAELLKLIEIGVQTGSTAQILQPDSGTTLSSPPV
Method: (§2) The inhibitory activity of the compounds on 7 kinases (BRAF, EGFR (ErbB1), EGFR (ErbB1) T790M L858R, FGFR2, KDR (VEGFR2), PDGFRA (PDGFR alpha), SRC) was evaluated by Invitrogen using the Z′-LYTE® technology. Briefly, the Z′-LYTE® biochemical assay employs a fluorescence-based, coupled-enzyme format and is based on the differential sensitivity of phosphorylated and non-phosphorylated peptides to proteolytic cleavage. The peptide substrate is labeled with two fluorophores—one at each end—that make up a FRET pair. A ratiometric method, which calculates the ratio (the Emission Ratio) of donor emission to acceptor emission after excitation of the donor fluorophore at 400 nm, is used to quantitate reaction progress.
(§3) The compounds are screened in 1% DMSO (final) in the well. For 10 point titrations, 3-fold serial dilutions are conducted from the starting concentration. All Peptide/Kinase Mixtures are diluted to a 2× working concentration in the appropriate Kinase Buffer. All ATP Solutions are diluted to a 4× working concentration in Kinase Buffer (50 mM HEPES pH 7.5, 0.01% BRIJ-35, 10 mM MgCl2, 1 mM EGTA). ATP Km apparent is previously determined using a Z′-LYTE® assay.
(§4) Each compound was incubated at a concentration of 100 nM and the tables 21 to 27 summarize the results obtained showing the inhibitory power of a compound.

FGFR2 = target: T2, FGFR2 (Homo sapiens, UniProt P21802); test: In vitro kinase assay (Z'-LYTE, Invitrogen); assay type: biochemical; settings: compound at 100 nM, ATP Km apparent, read-out: % of inhibition of the kinase compared to the control
T2 construct: purchased Invitrogen
T2 sequence (P21802 22-821): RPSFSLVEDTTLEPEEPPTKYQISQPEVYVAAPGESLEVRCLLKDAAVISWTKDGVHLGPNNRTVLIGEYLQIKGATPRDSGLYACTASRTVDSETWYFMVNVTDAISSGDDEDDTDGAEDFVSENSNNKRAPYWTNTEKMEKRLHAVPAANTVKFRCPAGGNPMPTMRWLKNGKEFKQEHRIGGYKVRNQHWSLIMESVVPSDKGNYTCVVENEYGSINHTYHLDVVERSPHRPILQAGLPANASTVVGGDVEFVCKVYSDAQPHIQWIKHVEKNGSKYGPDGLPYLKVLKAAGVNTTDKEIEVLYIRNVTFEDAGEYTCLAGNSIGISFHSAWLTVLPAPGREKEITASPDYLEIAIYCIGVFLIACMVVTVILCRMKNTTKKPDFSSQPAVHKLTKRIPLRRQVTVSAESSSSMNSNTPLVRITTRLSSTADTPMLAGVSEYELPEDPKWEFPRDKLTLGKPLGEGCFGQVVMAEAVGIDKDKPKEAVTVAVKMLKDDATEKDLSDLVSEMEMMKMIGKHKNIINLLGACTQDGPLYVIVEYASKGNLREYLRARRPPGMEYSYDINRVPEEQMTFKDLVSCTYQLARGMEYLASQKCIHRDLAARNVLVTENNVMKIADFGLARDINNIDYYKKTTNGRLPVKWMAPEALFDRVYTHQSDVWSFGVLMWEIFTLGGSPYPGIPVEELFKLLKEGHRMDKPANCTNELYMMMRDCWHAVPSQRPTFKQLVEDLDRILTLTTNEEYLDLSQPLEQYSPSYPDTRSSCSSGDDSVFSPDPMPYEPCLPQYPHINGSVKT
Method: as §2, §3, §4

BRAF = target: T3, BRAF (Homo sapiens, UniProt P15056); test: In vitro kinase assay (Z'-LYTE, Invitrogen); assay type: biochemical; settings: compound at 100 nM, ATP Km apparent, read-out: % of inhibition of the kinase compared to the control
T3 construct: purchased Invitrogen
T3 sequence (P15056 whole entry): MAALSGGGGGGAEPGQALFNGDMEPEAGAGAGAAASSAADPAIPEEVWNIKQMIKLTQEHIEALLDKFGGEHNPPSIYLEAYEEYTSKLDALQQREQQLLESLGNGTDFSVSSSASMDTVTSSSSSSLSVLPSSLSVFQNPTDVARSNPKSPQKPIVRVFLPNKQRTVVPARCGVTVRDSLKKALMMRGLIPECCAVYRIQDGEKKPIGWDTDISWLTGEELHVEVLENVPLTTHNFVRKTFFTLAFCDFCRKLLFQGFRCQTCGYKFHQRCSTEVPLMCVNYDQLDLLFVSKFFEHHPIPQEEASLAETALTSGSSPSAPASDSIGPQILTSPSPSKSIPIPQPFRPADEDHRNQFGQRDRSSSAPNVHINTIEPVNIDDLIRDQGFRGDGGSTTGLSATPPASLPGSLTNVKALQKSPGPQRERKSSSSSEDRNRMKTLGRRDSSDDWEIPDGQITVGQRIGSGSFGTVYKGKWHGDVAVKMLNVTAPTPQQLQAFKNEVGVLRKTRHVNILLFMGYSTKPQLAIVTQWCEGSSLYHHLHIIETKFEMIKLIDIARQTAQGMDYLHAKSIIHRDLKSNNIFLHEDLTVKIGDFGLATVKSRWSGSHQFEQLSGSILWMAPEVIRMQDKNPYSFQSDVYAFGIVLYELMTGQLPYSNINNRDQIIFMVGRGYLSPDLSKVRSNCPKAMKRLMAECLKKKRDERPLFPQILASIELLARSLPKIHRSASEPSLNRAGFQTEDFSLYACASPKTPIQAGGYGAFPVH
Method: as §2, §3, §4

PDGFRA (PDGFR alpha) = target: T4, PDGFRA (PDGFR alpha) (Homo sapiens, UniProt P16234); test: In vitro kinase assay (Z'-LYTE, Invitrogen); assay type: biochemical; settings: compound at 100 nM, ATP Km apparent, read-out: % of inhibition of the kinase compared to the control
T4 construct: purchased Invitrogen
Method: as §2, §3, §4

EGFR (ErbB1) = target: T5, EGFR (ErbB1) (Homo sapiens, UniProt P00533); test: In vitro kinase assay (Z'-LYTE, Invitrogen); assay type: biochemical; settings: compound at 100 nM, ATP Km apparent, read-out: % of inhibition of the kinase compared to the control
T5 construct: purchased Invitrogen
T5 sequence (P00533 25-1210): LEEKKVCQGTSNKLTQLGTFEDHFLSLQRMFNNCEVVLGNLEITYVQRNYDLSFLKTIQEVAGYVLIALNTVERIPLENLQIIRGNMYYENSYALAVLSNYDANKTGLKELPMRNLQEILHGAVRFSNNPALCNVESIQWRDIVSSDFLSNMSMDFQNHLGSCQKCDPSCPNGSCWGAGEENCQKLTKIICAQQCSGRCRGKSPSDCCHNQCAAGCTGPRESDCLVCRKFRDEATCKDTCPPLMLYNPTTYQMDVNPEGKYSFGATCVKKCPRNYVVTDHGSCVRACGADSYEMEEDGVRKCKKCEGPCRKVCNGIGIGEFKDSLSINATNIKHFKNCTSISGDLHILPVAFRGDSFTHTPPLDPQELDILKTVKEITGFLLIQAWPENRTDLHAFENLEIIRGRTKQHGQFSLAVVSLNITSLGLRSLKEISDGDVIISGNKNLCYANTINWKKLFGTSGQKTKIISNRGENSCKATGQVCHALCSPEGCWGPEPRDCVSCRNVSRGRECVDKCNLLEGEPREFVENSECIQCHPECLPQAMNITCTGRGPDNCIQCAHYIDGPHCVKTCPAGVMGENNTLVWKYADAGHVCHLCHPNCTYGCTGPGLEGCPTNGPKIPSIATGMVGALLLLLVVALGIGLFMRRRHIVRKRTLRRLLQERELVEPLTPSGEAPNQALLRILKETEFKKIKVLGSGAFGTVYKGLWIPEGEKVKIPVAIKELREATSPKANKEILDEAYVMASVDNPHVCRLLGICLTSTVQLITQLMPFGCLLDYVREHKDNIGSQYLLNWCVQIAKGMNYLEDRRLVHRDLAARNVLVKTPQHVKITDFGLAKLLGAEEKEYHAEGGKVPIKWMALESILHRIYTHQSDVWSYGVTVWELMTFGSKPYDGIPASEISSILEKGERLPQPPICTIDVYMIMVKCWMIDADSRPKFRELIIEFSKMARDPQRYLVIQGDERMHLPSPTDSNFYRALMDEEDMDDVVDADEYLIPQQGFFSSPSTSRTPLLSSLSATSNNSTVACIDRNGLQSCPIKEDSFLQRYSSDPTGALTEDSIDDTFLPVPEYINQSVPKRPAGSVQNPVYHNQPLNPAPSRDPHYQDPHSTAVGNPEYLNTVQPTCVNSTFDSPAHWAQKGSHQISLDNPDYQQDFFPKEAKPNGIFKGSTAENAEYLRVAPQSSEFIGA
Method: as §2, §3, §4

SRC = target: T6, SRC (Homo sapiens, UniProt P12931); test: In vitro kinase assay (Z'-LYTE, Invitrogen); assay type: biochemical; settings: compound at 100 nM, ATP Km apparent, read-out: % of inhibition of the kinase compared to the control
T6 construct: purchased Invitrogen
T6 sequence (P12931 whole entry): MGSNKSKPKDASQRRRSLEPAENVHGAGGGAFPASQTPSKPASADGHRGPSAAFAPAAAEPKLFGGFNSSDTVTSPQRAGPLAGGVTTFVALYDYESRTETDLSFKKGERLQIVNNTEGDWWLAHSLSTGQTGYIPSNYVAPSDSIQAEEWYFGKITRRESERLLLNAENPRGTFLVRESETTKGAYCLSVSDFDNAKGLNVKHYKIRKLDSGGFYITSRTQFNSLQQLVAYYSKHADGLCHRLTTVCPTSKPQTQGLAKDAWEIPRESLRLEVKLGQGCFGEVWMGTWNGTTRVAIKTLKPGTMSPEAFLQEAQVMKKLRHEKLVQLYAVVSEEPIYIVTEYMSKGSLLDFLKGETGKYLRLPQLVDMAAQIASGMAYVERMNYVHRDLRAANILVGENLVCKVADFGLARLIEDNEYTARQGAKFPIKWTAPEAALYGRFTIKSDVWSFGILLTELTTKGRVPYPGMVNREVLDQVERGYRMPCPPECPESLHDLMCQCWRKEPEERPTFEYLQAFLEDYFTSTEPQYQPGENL
Method: as §2, §3, §4

Compound	EC50 (HUVEC cells; EC50 ≧ 1 μM) [nM]	EC50 (MDA-MB-231 cell line) [nM]	EC50 (HeLa cell line) [nM]	EC50 (HepG2 cell line; EC50 ≧ 1 μM) [nM]	EC50 (A549 cell line) [nM]	inhibition at 0.1 µM (KDR (VEGFR2)) [%]	inhibition at 0.1 µM (FGFR2) [%]	inhibition at 0.1 µM (BRAF) [%]	inhibition at 0.1 µM (PDGFRA (PDGFR alpha)) [%]	inhibition at 0.1 µM (EGFR (ErbB1)) [%]	inhibition at 0.1 µM (SRC) [%]	EC50 (HUVEC cells; 100 nM < EC50 < 1 μM) [nM]	EC50 (HepG2 cell line; 100 nM < EC50 < 1 μM) [nM]
COC(=O)c1cc2cc(C=Cc3cccc(C(=O)Nc4cccc(C(F)(F)F)c4)c3)cnc2[nH]1 [OR1046, 5-{2-[3-(3-Trifluoromethyl-phenylcarbamoyl)-phenyl]-vinyl}-1H-pyrrolo[2,3-b]pyridine-2-carboxylic acid methyl ester]	≥ 1000	≥ 1000	≥ 1000	≥ 1000	≥ 1000	–	–	–	–	–	–	–	–
COC(=O)c1cc2cc(CCc3cc(NC(=O)c4ccccc4OC)ccc3Cl)cnc2[nH]1 [OR1064, 5-{2-[2-Chloro-5-(2-methoxy-benzoylamino)-phenyl]-ethyl}-1H-pyrrolo[2,3-b]pyridine-2-carboxylic acid methyl ester]	–	–	–	–	–	< 50	< 50	< 50	≥ 50	< 50	< 50	–	–
CC(=O)c1cc2cc(CCc3cc(NS(=O)(=O)c4cccc(C(F)(F)F)c4)ccc3C)cnc2[nH]1 [OR0967, N-{3-[2-(2-Acetyl-1H-pyrrolo[2,3-b]pyridin-5-yl)-ethyl]-4-methyl-phenyl}-3-trifluoromethyl-benzenesulfonamide]	≥ 1000	–	–	≥ 1000	–	< 50	< 50	< 50	< 50	< 50	< 50	–	–
COC(=O)c1cc2cc(CCc3cccc(NC(=O)c4ccc(CN5CCC(N(C)C)C5)c(C(F)(F)F)c4)c3)cnc2[nH]1 (centres unmarked) [OR0922, 5-(2-{5-[4-(3-Dimethylamino-pyrrolidin-1-ylmethyl)-3-trifluoromethyl-benzoylamino]-phenyl}-ethyl)-1H-pyrrolo[2,3-b]pyridine-2-carboxylic acid methyl ester]	–	–	–	≥ 1000	–	≥ 50	≥ 50	< 50	–	≥ 50	–	100 to 1000	–
COC(=O)c1cc2cc(CCc3cc(NC(=O)Nc4cccc(C(F)(F)F)c4)ccc3C)cnc2[nH]1 [OR0918, 5-(2-{2-Methyl-5-[3-(3-trifluoromethyl-phenyl)-ureido]-phenyl}-ethyl)-1H-pyrrolo[2,3-b]pyridine-2-carboxylic acid methyl ester]	≥ 1000	–	–	≥ 1000	–	< 50	< 50	< 50	≥ 50	< 50	< 50	–	–
COC(=O)c1cc2cc(CCc3cc(NC(=O)c4ccc(CN5CCN(C)CC5)c(F)c4)ccc3C)cnc2[nH]1 [OR0920, 5-(2-{5-[3-Fluoro-4-(4-methyl-piperazin-1-ylmethyl)-benzoylamino]-2-methyl-phenyl}-ethyl)-1H-pyrrolo[2,3-b]pyridine-2-carboxylic acid methyl ester]	≥ 1000	–	–	–	–	≥ 50	≥ 50	≥ 50	–	≥ 50	–	–	100 to 1000
COC(=O)c1cc2cc(CCc3cccc(NC(=O)c4cncc(C(F)(F)F)c4)c3)cnc2[nH]1 [OR0981, 5-(2-{3-[(5-Trifluoromethyl-pyridine-3-carbonyl)-amino]-phenyl}-ethyl)-1H-pyrrolo[2,3-b]pyridine-2-carboxylic acid methyl ester]	≥ 1000	–	–	≥ 1000	–	≥ 50	< 50	≥ 50	≥ 50	< 50	≥ 50	–	–
